From US9604979B2, “Pyrroloquinoline quinone alcohol adduct” (Mitsubishi Gas Chemical Company, Inc., priority 2011, dated 2017)

Experiments:
[1] = Mixing with coenzyme Q10, color of the mixture; type: physicochemical; conditions: weight ratio 1:1
[2] = tested on: Escherichia coli JM109; test: Effect on bacterial growth (viable bacteria count); type: cell-based; conditions: 8 mg sample + 100 μL E. coli JM109 solution (turbidity at 660 nm 0.57), 30 minutes room temperature, then 900 μL PBS, LB agar 30° C., colonies
Description: Escherichia coli JM109 was cultivated overnight in an LB medium at 30° C. The cultivated Escherichia coli JM109 was diluted with a phosphate buffer (PBS) having pH of 7.4 manufactured by GIBCO to obtain a solution 1 having turbidity at 660 nm of 0.57. To 8 mg of each sample shown in Table 2, 100 μL of the solution 1 was added at room temperature, and after 30 minutes, 900 μL of PBS was further added to obtain a solution 2. The solution 2 was planted in a petri dish with an LB agar medium and cultivated at 30° C., and a viable bacteria count was determined from the number of colonies in the solution 2.

[3] = High-performance liquid chromatography analysis: return of PQQ alcohol adduct to PQQ; type: physicochemical; conditions: 1 mg/ML adduct in phosphate buffer pH 7.4, left at room temperature for 2 hours, HPLC
Description: The high-performance liquid chromatography analysis of the PQQ alcohol adduct or the like was performed as follows.
A column: YMC-Pack ODS-TMS (5 μm) 150×4.6 mm I.D. was arranged in a high-performance liquid chromatography LC-20A manufactured by Shimadzu Corporation, and detection was performed at 260 nm using an eluent of 100 mM CH3COOH/100 mM CH3COONH4 (30/70, pH 5.1) and an absorption detector.
The PQQ methanol adduct obtained in Example 1 was added to a phosphate buffer (manufactured by Invitrogen pH 7.4) to obtain 1 mg/ML of a PQQ methanol adduct solution. After the PQQ methanol adduct solution was left at room temperature for 2 hours, the high-performance liquid chromatography analysis was performed. […] That is, the PQQ methanol adduct obtained in Example 1 returned to the original PQQ free body by the addition of the phosphate buffer and being left at room temperature for 2 hours.

[4] = Stability test in polypropylene container in oven (change of color); type: physicochemical
Description: It is to be noted that 100 μL of ODO, Nisshin Oillio was used as an edible fat and oil.

Color of mixture with coenzyme Q10 [1]	PQQ existing in the PQQ methanol adduct solution [3] [mg/mL]	Observation result after 7 days ([4]; 30° C., container's cover opened, 5 mg)	Discoloration in the opened state (container's cover opened) ([4]; Table 5)	Stability in the sealed state of the container ([4]; Table 5)	Structure (SMILES)	Viable bacteria count [2]
Brown					O=C([O-])c1cc(C(=O)[O-])c2c(n1)C(=O)C(=O)c1cc(C(=O)O)[nH]c1-2.[Na+].[Na+] [PQQ disodium]	
Brown					O=C(O)c1cc(C(=O)O)c2c(n1)C(=O)C(=O)c1cc(C(=O)O)[nH]c1-2 [PQQ free body, Pyrroloquinoline quinone]	80
Yellow	0.92	Red powder	immediately discolored to red	stable	COC1(O)C(=O)c2cc(C(=O)O)[nH]c2-c2c(C(=O)O)cc(C(=O)O)nc21 (stereo not drawn) [PQQ methanol adduct]	0
